Measurements as given in EP4659758A1, “ANTI-AGING COMPOSITION” (Mitsubishi Corporation Life Sciences Limited, priority 2023, dated 2024).

Key:
Format in all cases: cell-based
tyrosinase = target: T1, tyrosinase (Mus musculus, UniProt P11344); experiment: Tyrosinase activity suppression test (L-DOPA, absorbance at 490 nm, cell extract); conditions: 0.05 mM or 0.1 mM at melanin induction
T1 construct: a protein extract containing tyrosinase derived from B16 mouse melanoma cells; endogenous in cells; host or cells: B16 mouse melanoma cells, alpha-MSH induced; RIPA buffer lysate supernatant
T1 sequence (P11344 19-533): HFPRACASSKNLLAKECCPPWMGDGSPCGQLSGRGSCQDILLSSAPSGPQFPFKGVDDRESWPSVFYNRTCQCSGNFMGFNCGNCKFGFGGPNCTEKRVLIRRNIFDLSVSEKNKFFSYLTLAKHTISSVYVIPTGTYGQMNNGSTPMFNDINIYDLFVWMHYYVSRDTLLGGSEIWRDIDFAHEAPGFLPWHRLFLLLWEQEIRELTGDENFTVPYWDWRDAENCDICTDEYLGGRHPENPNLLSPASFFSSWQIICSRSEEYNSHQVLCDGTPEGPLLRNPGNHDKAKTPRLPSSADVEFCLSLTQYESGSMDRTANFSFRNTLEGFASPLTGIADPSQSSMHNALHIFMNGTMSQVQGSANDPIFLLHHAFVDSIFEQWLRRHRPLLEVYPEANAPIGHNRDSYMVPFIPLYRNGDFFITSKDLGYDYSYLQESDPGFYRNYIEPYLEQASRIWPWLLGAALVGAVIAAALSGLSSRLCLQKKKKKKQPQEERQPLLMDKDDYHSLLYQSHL
From the text: In addition, the tyrosinase activity in the present invention can be confirmed by adding L-DOPA having a known concentration to a protein extract containing tyrosinase derived from B16 mouse melanoma cells in which melanin is induced by a melanin inducer such as α-MSH (melanocyte stimulating hormone) to react, measuring the absorbance at 490 nm, and correcting the absorbance with the protein concentration in the protein extract. The tyrosinase activity inhibitory effect can be known by comparing the value of the absorbance at 490 nm corrected by the protein concentration measured by adding the test substance at the time of melanin induction and the same operation with the value of the test section to which the test substance is not added.
B16 mouse melanoma cells were seeded in a 6 well plate (2.0 × 10^4 cells/well), and cultured for 24 hours in D-MEM medium to which 5% fetal bovine serum was added with respect to the medium (5%CO2, 37°C). […] The protein concentration of the obtained sample was measured by the BCA method.
The same operation was performed except that melanin induction was not performed, and a reference sample was obtained. […] Fifty µL of a sample of each test section was placed in a 96 well plate (n=3), 50 µL of 0.8 mg/mL L-DOPA was added, the mixture was reacted at 37°C for 1 hour, and then the absorbance at 490 nm was measured with a microplate reader. […]

[1] = test system: Normal human epidermal keratinocytes; experiment: Suppression of decrease in hyaluronic acid production capability due to aging induction (ELISA); conditions: 50 µM, 0.5 mM hydrogen peroxide, 24 hours
Description: Normal human epidermal keratinocytes were seeded in 24 well plates (1.0 × 10^5 cells/well, N = 3) and precultured for 24 hours (5%CO2, 37°C). As a medium, a commercially available keratinocyte growth medium (PromoCell) was used. Thereafter, the wells were washed once with PBS (-), then replaced with a keratinocyte growth medium dissolved so that the final concentration of Sample 1 was 50 µM, and further incubated for 30 minutes. Thereafter, normal human epidermal keratinocytes were treated with a medium adjusted to have a final concentration of hydrogen peroxide of 0.5 mM to induce aging. Thereafter, the medium was replaced with a new keratinocyte growth medium and incubated for 24 hours, and then the amount of hyaluronic acid was quantified by an ELISA method using a hyaluronic acid quantification kit (Cosmo Bio). For comparison, a test section not treated with oxidized glutathione trisulfide was provided.
The hyaluronic acid production amount in each of the test sections was shown as a relative value when the hyaluronic acid production amount in the test section in which neither oxidized glutathione trisulfide treatment nor aging induction was performed was taken as 100. […]

Normal human fibroblasts [2] = experiment: as above; conditions: 50 µM or 100 µM, 0.5 mM hydrogen peroxide, 24 hours; for hyaluronic acid production amount: relative value, compared with only aging induction
Description: Normal human fibroblasts were seeded in 24 well plates (8.0 × 10^4 cells/well, N = 3) and precultured for 24 hours (5% CO2, 37°C). As a medium, MEM-α, nucleosides medium (Gibco) containing fetal bovine serum (10% of serum-free medium was externally added) was used. Thereafter, the wells were washed once with PBS (-), then replaced with MEM-α, nucleoside medium containing fetal bovine serum (5% of serum-free medium was externally added) dissolved so that the final concentration of Sample 1 or Sample 2 was 50 µM or 100 µM, and further incubated for 30 minutes. Thereafter, fibroblasts were treated with a medium adjusted so that the final concentration of hydrogen peroxide was 0.5 mM to induce aging. Thereafter, the culture medium was changed to MEM-α, nucleoside medium containing fetal bovine serum (5% of serum-free culture medium was externally added) and incubated for 24 hours, and then the amount of hyaluronic acid was quantified by ELISA using a hyaluronic acid quantification kit (Cosmo Bio Inc.).
The hyaluronic acid production amount in each test section was shown as a relative value when the hyaluronic acid production amount in each sample and the test section in which aging induction was not performed was taken as 100. Regarding the hyaluronic acid production amount, a significant difference test (t-test, two-tailed) between the two groups of the test section for Sample 1 and the test section for which only the aging induction was performed respectively, and a significant difference test between the test section for Sample 2 and the test section for which only the aging induction was performed were each performed, and "*(p < 0.05)" was marked for those in which a significant difference was recognized.

[3] = test system: Normal human epidermal keratinocytes; experiment: Suppression of decrease in proliferation capability after hydrogen peroxide aging induction (MTT assay); conditions: 50 µM or 100 µM, 0.5 mM hydrogen peroxide aging induction; relative to untreated non-induced = 100; compared with only aging induction
Description: Normal human epidermal keratinocytes were seeded in 96 well plates (1.0 × 10^4 cells/well, N = 3) and precultured for 24 hours (5%CO2, 37°C). As a medium, a commercially available keratinocyte growth medium (PromoCell) was used. Thereafter, the wells were washed once with PBS (-), then replaced with a keratinocyte growth medium dissolved so that the final concentration of Sample 1 was 50 µM or 100 µM, and further incubated for 30 minutes. Thereafter, normal human epidermal keratinocytes were treated with a medium adjusted to have a final concentration of hydrogen peroxide of 0.5 mM to induce aging. Thereafter, an MTT assay was performed according to a conventional method, and the survival rate of normal human epidermal keratinocytes was calculated as a relative value when the survival rate of cells in a test section in which neither the treatment with oxidized glutathione trisulfide nor the aging induction was performed was taken as 100.
For comparison, a test section in which only aging induction was performed without treatment with oxidized glutathione trisulfide was set.
Regarding the survival rate, a significant difference test (t-test, two-tailed) between the two groups of the test section of Sample 1 and the test section in which only aging induction was performed was performed respectively.

Normal human fibroblasts [4] = experiment: as above; conditions: 50 µM or 100 µM, 0.5 mM hydrogen peroxide aging induction; relative to untreated non-induced = 100; compared with only aging induction and with 100 µM reduced glutathione, p < 0.005
Description: Normal human fibroblasts were seeded in 96 well plates (3.0 × 10^3 cells/well, N = 3) and precultured for 24 hours (5% CO2, 37°C). As a medium, MEM-α, nucleosides medium (Gibco) containing fetal bovine serum (10% of serum-free medium was externally added) was used. Thereafter, the wells were washed once with PBS (-), then replaced with MEM-α, nucleoside medium containing fetal bovine serum (5% of serum-free medium was externally added) dissolved so that the final concentration of Sample 1 or Sample 2 was 50 µM or 100 µM, and further incubated for 30 minutes. Thereafter, fibroblasts were treated with a medium adjusted so that the final concentration of hydrogen peroxide was 0.5 mM to induce aging. Thereafter, an MTT assay was performed according to a conventional method, and the survival rate of fibroblasts was calculated as a relative value when the survival rate of cells in the test section in which neither treatment nor aging induction was performed was taken as 100.
For comparison, a test section in which only aging induction was performed and a test section in which reduced glutathione was 100 µM was set instead of Sample 1. […]

B16 mouse melanoma cells = experiment: Melanin production suppression test in cultured cells (absorbance at 405 nm); conditions: α-MSH 200 nM induction; for melanin production amount: 0.02 mM or 0.05 mM, relative to reference sample (induction only) = 100, p < 0.01
Description: B16 mouse melanoma cells were seeded in a 6 well plate (2.0 × 10^4 cells/well), and cultured for 24 hours in D-MEM medium to which 5% fetal bovine serum was added with respect to the medium (5%CO2, 37°C). […] The obtained pellets were washed twice with PBS (-), 150 µL of a 1 M sodium hydroxide solution was then added, and the mixture was treated at 100°C for 10 minutes to dissolve the pellets, thereby preparing a reference sample. […] One hundred µL of a sample of each test section was added to a 96 well plate, and the absorbance at 405 nm was measured with a microplate reader (n = 3). […] The significant difference test was performed on the measured value of the reference sample by the Dunnett method (*p < 0.05, **p < 0.01.).

Compound | tyrosinase activity (tyrosinase; compared with reference sample (no melanin induction) = 100) | tyrosinase activity (tyrosinase; compared with test section with only melanin induction) | hyaluronic acid production capability ([1]; compared with control group without aging induction, no significant difference) | hyaluronic acid production amount ([1]; relative value, compared with only aging induction) | hyaluronic acid production capability (Normal human fibroblasts [2]; compared with test sections without aging induction, no significant difference) | hyaluronic acid production amount (Normal human fibroblasts [2]) | survival rate of normal human epidermal keratinocytes (cell proliferation rate) [3] | survival rate of fibroblasts (cell proliferation rate) (Normal human fibroblasts [4]) | melanin production amount (B16 mouse melanoma cells) | melanin production suppressing effect (B16 mouse melanoma cells; 3 mM, compared with 0.02 mM Sample 1)
N[C@@H](CCC(=O)N[C@@H](CSSSC[C@H](NC(=O)CC[C@H](N)C(=O)O)C(=O)NCC(=O)O)C(=O)NCC(=O)O)C(=O)O [Sample 1, oxidized glutathione trisulfide] | same degree of tyrosinase activity as the reference sample | significantly lower than the test section in which only melanin induction was performed | same hyaluronic acid production capability as that of the control group in which aging is not induced | significantly higher than that in the test section of only aging induction | same hyaluronic acid production capability as those of the test sections that did not induce aging | significantly higher than that in the test section of only aging induction | significant cell proliferation rate | significant cell proliferation rate | significantly low | 
CC(=O)N[C@@H](CSSSC[C@H](NC(C)=O)C(=O)O)C(=O)O [Sample 2, oxidized NAC trisulfide] |  |  |  |  |  | significantly higher than that in the test section of only aging induction |  | significant cell proliferation rate | significantly low | 
N[C@@H](CCC(=O)N[C@@H](CS)C(=O)NCC(=O)O)C(=O)O [reduced glutathione, reference compound] |  |  |  |  |  |  |  |  |  | same melanin production suppressing effect as the 0.02 mM test section of Sample 1
